ChEMBL document CHEMBL6182854, “Design, synthesis and biological evaluation of WEE1 degraders via HSP90-mediated targeting chimeras for target therapy of acute myeloid leukemia” (Eur J Med Chem, 2025)
pIC50: −log10 of the molar value. Calls of active or inactive are those of the source. No cut-off for these calls is given here.

How the values were obtained:
MV4-11 [1] = assay: Induction of cell cycle arrest in human MV4-11 cells assessed as accumulation of cells at G2/M phase at 100 nM incubated for 72 hrs by PI staining based flow cytometry; type: functional
[2] = tested on: Primary acute myeloid leukemic cell; assay: Antitumor activity against patient derived human Primary acute myeloid leukemic cell xenografted in female NOD/SCID mouse assessed as decrease in huCD45+ cells in bone marrow at 5 mg/kg administered via tail vein and measured after 4 weeks in presence of STA9090 by flow cytometric analysis; type: functional, organism-based
[3] = tested on: Primary acute myeloid leukemic cell; assay: Antitumor activity against patient derived human Primary acute myeloid leukemic cell xenografted in female NOD/SCID mouse assessed as decrease in huCD45+ cells in bone marrow at 5 mg/kg administered via tail vein and measured after 4 weeks by flow cytometric analysis; type: functional, organism-based
MV4-11 [4] = assay: HEMTAC activity against HSP90/WEE1 in human MV4-11 cells assessed as induction of WEE1 degradation at 10 uM incubated for 12 hrs by Western blotting analysis; type: cell-based
MV4-11 [5] = assay: Upregulation of WEE1 mRNA expression in human MV4-11 cells incubated for 12 hrs by qRT-PCR analysis; type: functional, cell-based; details: dose 1-10 µM
[6] = tested on: Primary acute myeloid leukemic cell; assay: Antitumor activity against patient derived human Primary acute myeloid leukemic cell xenografted in female NOD/SCID mouse assessed as decrease in huCD45+ cells in bone marrow at 3 mg/kg administered via tail vein in presence of STA9090 and measured after 4 weeks by flow cytometric analysis; type: functional, organism-based
MV4-11 [7] = assay: Antiproliferative activity against human MV4-11 cells assessed as cell viability incubated for 72 hrs by CCK-8 assay; type: functional, cell-based; details: MV4-11, 72 h
MV4-11 [8] = assay: Induction of cell cycle arrest in human MV4-11 cells assessed as accumulation of cells at G2/M phase incubated for 72 hrs by PI staining based flow cytometry; type: functional; details: dose 30.0 µM
[9] = target: Heat shock protein HSP 90-alpha (Homo sapiens, UniProt P07900); assay: Inhibition of N-terminal HSP90alpha (unknown origin) ATPase activity incubated for 3 hrs by fluorescence polarization assay
[10] = Toxicity in female NOD/SCID mouse xenografted with patient derived human Primary acute myeloid leukemic cell assessed as increase in body weight at 3 mg/kg administered via tail vein and measured after 4 weeks; type: organism-based; details: in vivo, iv, 672 h
MV4-11 [11] = assay: HEMTAC activity at HSP90/WEE1 in human MV4-11 cells assessed as induction of WEE1 degradation at 0.1 uM incubated for 12 hrs by Western blotting analysis; type: cell-based
[12] = Toxicity in female NOD/SCID mouse xenografted with patient derived human Primary acute myeloid leukemic cell assessed as heart damage at 3 mg/kg administered via tail vein by H and E staining based optical microscopic analysis; type: organism-based; details: in vivo, iv
MV4-11 [13] = assay: Induction of cell cycle arrest in human MV4-11 cells assessed as accumulation of cells at G2/M phase at 30 nM incubated for 72 hrs by PI staining based flow cytometry; type: functional
[14] = Toxicity in male BALB/C mouse assessed as myelosuppression by measuring platelet level at 10 mg/kg administered via tail vein and measured on day 3; type: organism-based; details: in vivo, iv, 72 h, time 3 day
MV4-11 [15] = assay: HEMTAC activity against HSP90/AKT in human MV4-11 cells assessed as induction of AKT degradation at 0.1 uM incubated for 12 hrs by Western blotting analysis; type: cell-based
[16] = Toxicity in female NOD/SCID mouse xenografted with patient derived human Primary acute myeloid leukemic cell assessed as kidney damage at 10 mg/kg administered via tail vein by H and E staining based optical microscopic analysis; type: organism-based; details: in vivo, iv
[17] = tested on: Primary acute myeloid leukemic cell; assay: Antitumor activity against patient derived human Primary acute myeloid leukemic cell xenografted in female NOD/SCID mouse assessed as decrease in huCD45+ cells in spleen at 3 mg/kg administered via tail vein and measured after 4 weeks by flow cytometric analysis; type: functional, organism-based
[18] = Toxicity in male BALB/C mouse assessed as myelosuppression by measuring leukocytes level at 10 mg/kg administered via tail vein and measured on day 3; type: organism-based; details: in vivo, iv, 72 h, time 3 day
[19] = tested on: Primary acute myeloid leukemic cell; assay: Antitumor activity against patient derived human Primary acute myeloid leukemic cell xenografted in female NOD/SCID mouse assessed as reduction in splenomegaly at 3 mg/kg administered via tail vein and measured after 4 weeks; type: functional, organism-based
[20] = Toxicity in female NOD/SCID mouse xenografted with patient derived human Primary acute myeloid leukemic cell assessed as spleen damage at 3 mg/kg administered via tail vein by H and E staining based optical microscopic analysis; type: organism-based; details: in vivo, iv
[21] = target: Cyclin-dependent kinase 1 (Homo sapiens) (UniProt P06493); assay: Inhibition of CDK1 phosphorylation in human MV4-11 cells; type: cell-based
[22] = Toxicity in female NOD/SCID mouse xenografted with patient derived human Primary acute myeloid leukemic cell assessed as lung damage at 3 mg/kg administered via tail vein by H and E staining based optical microscopic analysis; type: organism-based; details: in vivo, iv
[23] = Toxicity in male BALB/C mouse assessed as myelosuppression by measuring neutrophil level at 10 mg/kg administered via tail vein and measured on day 3; type: organism-based; details: in vivo, iv, 72 h, time 3 day
[24] = Cytotoxicity against human PBMC cells assessed as reduction in cell viability up to 1000 nM incubated for 72 hrs by CCK-8 assay; type: toxicity, cell-based; details: 1 µM
[25] = Toxicity in female NOD/SCID mouse xenografted with patient derived human Primary acute myeloid leukemic cell assessed as liver damage at 3 mg/kg administered via tail vein by H and E staining based optical microscopic analysis; type: organism-based; details: in vivo, iv
[26] = Antiproliferative activity against patient derived human Primary acute myeloid leukemic cell assessed as inhibition of cell growth incubated for 72 hrs by CCK-8 assay; type: functional, cell-based
[27] = Toxicity in female NOD/SCID mouse xenografted with patient derived human Primary acute myeloid leukemic cell assessed as spleen damage at 10 mg/kg administered via tail vein by H and E staining based optical microscopic analysis; type: organism-based; details: in vivo, iv
[28] = tested on: Primary acute myeloid leukemic cell; assay: Antitumor activity against patient derived human Primary acute myeloid leukemic cell xenografted in female NOD/SCID mouse assessed as decrease in huCD45+ cells in spleen at 10 mg/kg administered via tail vein and measured after 4 weeks by flow cytometric analysis; type: functional, organism-based
[29] = Toxicity in female NOD/SCID mouse xenografted with patient derived human Primary acute myeloid leukemic cell assessed as lung damage at 10 mg/kg administered via tail vein by H and E staining based optical microscopic analysis; type: organism-based; details: in vivo, iv
[30] = Toxicity in female NOD/SCID mouse xenografted with patient derived human Primary acute myeloid leukemic cell assessed as heart damage at 10 mg/kg administered via tail vein by H and E staining based optical microscopic analysis; type: organism-based; details: in vivo, iv
[31] = Antitumor activity against patient derived human Primary acute myeloid leukemic cell xenografted in female NOD/SCID mouse assessed as decrease in huCD45+ cells in bone marrow at 10 mg/kg administered via tail vein and measured after 4 weeks by flow cytometric analysis relative to control; type: functional; set-up: scale not given: the % may be the effect or the level left
[32] = Toxicity in female NOD/SCID mouse xenografted with patient derived human Primary acute myeloid leukemic cell assessed as liver damage at 10 mg/kg administered via tail vein by H and E staining based optical microscopic analysis; type: organism-based; details: in vivo, iv
[33] = tested on: Primary acute myeloid leukemic cell; assay: Antitumor activity against patient derived human Primary acute myeloid leukemic cell xenografted in female NOD/SCID mouse assessed as reduction in splenomegaly at 10 mg/kg administered via tail vein and measured after 4 weeks; type: functional, organism-based
[34] = Toxicity in female NOD/SCID mouse xenografted with patient derived human Primary acute myeloid leukemic cell assessed as increase in body weight at 10 mg/kg administered via tail vein and measured after 4 weeks; type: organism-based; details: in vivo, iv, 672 h
[35] = tested on: Primary acute myeloid leukemic cell; assay: Antitumor activity against patient derived human Primary acute myeloid leukemic cell xenografted in female NOD/SCID mouse assessed as decrease in huCD45+ cells in bone marrow at 3 mg/kg administered via tail vein in presence of AZD1775 and measured after 4 weeks by flow cytometric analysis; type: functional, organism-based
[36] = tested on: Primary acute myeloid leukemic cell; assay: Antitumor activity against patient derived human Primary acute myeloid leukemic cell xenografted in female NOD/SCID mouse assessed as decrease in huCD45+ cells in bone marrow at 5 mg/kg administered via tail vein and measured after 4 weeks in presence of AZD1775 by flow cytometric analysis; type: functional, organism-based

Cyclin-dependent kinase 1 (Homo sapiens), sequence (P06493 whole entry, looked up): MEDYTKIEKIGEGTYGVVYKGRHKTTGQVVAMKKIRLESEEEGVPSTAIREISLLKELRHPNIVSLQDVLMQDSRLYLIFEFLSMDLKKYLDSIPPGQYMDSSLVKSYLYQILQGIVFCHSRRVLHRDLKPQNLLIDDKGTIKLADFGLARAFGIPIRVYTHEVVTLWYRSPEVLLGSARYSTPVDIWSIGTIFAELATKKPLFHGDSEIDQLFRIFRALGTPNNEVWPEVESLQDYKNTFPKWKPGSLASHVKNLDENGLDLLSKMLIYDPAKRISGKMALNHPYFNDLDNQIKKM

## C=CCn1c(=O)c2cnc(Nc3ccc(N4CCN(C)CC4)cc3)nc2n1-c1cccc(C(C)(C)O)n1 [ADAVOSERTIB]
MV4-11 [1]
  Activity: Active
[2]
  Activity: inactive
[3]
  Activity: inactive
MV4-11 [4]
  Activity: inactive
MV4-11 [5]
  Activity: inactive
[6]
  Activity: inactive
MV4-11 [7]
  pIC50: 7.17

## C=CCn1c(=O)c2cnc(Nc3ccc(N4CCN(CCCCCNC(=O)CCC(=O)Nc5ccc6c(c5)CCN6C(=O)c5cc(C(C)C)c(O)cc5O)CC4)cc3)nc2n1-c1cccc(C(C)(C)O)n1
MV4-11 [4]
  Activity: Active
MV4-11 [7]
  pIC50: 7.42

## CCNC(=O)c1noc(-c2cc(C(C)C)c(O)cc2O)c1-c1ccc(CN2CCOCC2)cc1 [LUMINESPIB]
MV4-11 [8]
  Activity: Active
MV4-11 [7]
  pIC50: 8.70

## C=CCn1c(=O)c2cnc(Nc3ccc(N4CCN(CCCNC(=O)CCC(=O)Nc5ccc6c(c5)CCN6C(=O)c5cc(C(C)C)c(O)cc5O)CC4)cc3)nc2n1-c1cccc(C(C)(C)O)n1
MV4-11 [4]
  Activity: Active
MV4-11 [7]
  pIC50: 7.32
[9]
  pIC50: 7.73

## C=CCn1c(=O)c2cnc(Nc3ccc(N4CCN(CCCCNC(=O)CN5CCN(Cc6ccc(-n7c(C(=O)NCC)nnc7-c7cc(C(C)C)c(O)cc7O)cc6)CC5)CC4)cc3)nc2n1-c1cccc(C(C)(C)O)n1
[10]
  Activity: Non-toxic
MV4-11 [11]
  Activity: Active
[12]
  Activity: Non-toxic
MV4-11 [13]
  Activity: Active
[14]
  Activity: Non-toxic
MV4-11 [15]
  Activity: Minimal_effect
[16]
  Activity: Non-toxic
[17]
  Activity: Active
MV4-11 [8]
  Activity: Dose-dependent-effect
[18]
  Activity: Non-toxic
[19]
  Activity: Active
[20]
  Activity: Non-toxic
[21]
  inhibition: Active
[22]
  Activity: Non-toxic
MV4-11 [4]
  Activity: Active
[23]
  Activity: Non-toxic
[24]
  Activity: Non-toxic
MV4-11 [5]
  Activity: Active
[25]
  Activity: Non-toxic
[9]
  pIC50: 7.78

## CC(C)c1cc(C(=O)N2Cc3ccc(CN4CCN(C)CC4)cc3C2)c(O)cc1O [ONALESPIB]
MV4-11 [7]
  pIC50: 8.21
[9]
  pIC50: 8.00

## C=CCn1c(=O)c2cnc(Nc3ccc(N4CCN(CCNC(=O)CN5CCN(Cc6ccc(-n7c(C(=O)NCC)nnc7-c7cc(C(C)C)c(O)cc7O)cc6)CC5)CC4)cc3)nc2n1-c1cccc(C(C)(C)O)n1
MV4-11 [4]
  Activity: Active
MV4-11 [7]
  pIC50: 7.88

## C=CCn1c(=O)c2cnc(Nc3ccc(N4CCN(CCCCNC(=O)c5noc(-c6cc(C(C)C)c(O)cc6O)c5-c5ccc(CN6CCOCC6)cc5)CC4)cc3)nc2n1-c1cccc(C(C)(C)O)n1
MV4-11 [4]
  Activity: Active
MV4-11 [7]
  pIC50: 7.35

## C=CCn1c(=O)c2cnc(Nc3ccc(N4CCN(CCCNC(=O)c5noc(-c6cc(C(C)C)c(O)cc6O)c5-c5ccc(CN6CCOCC6)cc5)CC4)cc3)nc2n1-c1cccc(C(C)(C)O)n1
MV4-11 [11]
  Activity: Active
[26]
  pIC50: 7.39
[27]
  Activity: Non-toxic
MV4-11 [13]
  Activity: Active
[14]
  Activity: Non-toxic
MV4-11 [15]
  Activity: Minimal_effect
[28]
  Activity: Active
[29]
  Activity: Non-toxic
[30]
  Activity: Non-toxic
MV4-11 [8]
  Activity: Dose-dependent-effect
[21]
  inhibition: Active
[31]
  Activity: >70%
[32]
  Activity: Non-toxic
[22]
  Activity: Non-toxic
MV4-11 [4]
  Activity: Active
[33]
  Activity: Active
[24]
  Activity: Non-toxic
[34]
  Activity: Non-toxic
MV4-11 [5]
  Activity: Active
MV4-11 [7]
  pIC50: 8.10
[9]
  pIC50: 7.86

## C=CCn1c(=O)c2cnc(Nc3ccc(N4CCN(CCCCCNC(=O)CN5CCN(Cc6ccc(-n7c(C(=O)NCC)nnc7-c7cc(C(C)C)c(O)cc7O)cc6)CC5)CC4)cc3)nc2n1-c1cccc(C(C)(C)O)n1
MV4-11 [4]
  Activity: Active
MV4-11 [7]
  pIC50: 8.02

## C=CCn1c(=O)c2cnc(Nc3ccc(N4CCN(CCCCNC(=O)CCC(=O)Nc5ccc6c(c5)CCN6C(=O)c5cc(C(C)C)c(O)cc5O)CC4)cc3)nc2n1-c1cccc(C(C)(C)O)n1
MV4-11 [4]
  Activity: Active
MV4-11 [7]
  pIC50: 6.82

## C=CCn1c(=O)c2cnc(Nc3ccc(N4CCN(CCCCCNC(=O)c5noc(-c6cc(C(C)C)c(O)cc6O)c5-c5ccc(CN6CCOCC6)cc5)CC4)cc3)nc2n1-c1cccc(C(C)(C)O)n1
MV4-11 [4]
  Activity: Active
MV4-11 [7]
  pIC50: 7.62

## C=CCn1c(=O)c2cnc(Nc3ccc(N4CCN(CCNC(=O)CCC(=O)Nc5ccc6c(c5)CCN6C(=O)c5cc(C(C)C)c(O)cc5O)CC4)cc3)nc2n1-c1cccc(C(C)(C)O)n1
MV4-11 [4]
  Activity: Active
MV4-11 [7]
  pIC50: 7.88

## CC(C)c1cc(-c2n[nH]c(=O)n2-c2ccc3c(ccn3C)c2)c(O)cc1O [GANETESPIB]
[35]
  Activity: inactive
[36]
  Activity: inactive
MV4-11 [8]
  Activity: Active
[3]
  Activity: inactive
MV4-11 [7]
  pIC50: 8.82

## C=CCn1c(=O)c2cnc(Nc3ccc(N4CCN(CCNC(=O)c5noc(-c6cc(C(C)C)c(O)cc6O)c5-c5ccc(CN6CCOCC6)cc5)CC4)cc3)nc2n1-c1cccc(C(C)(C)O)n1
MV4-11 [4]
  Activity: Active
MV4-11 [7]
  pIC50: 7.00
